Measured values as given in the supplement of paper PMC4862054.

Legend:
Conditions in all cases: 72 h
HCC1599 = test system: HCC1599
Procedure, shortened: (§1)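 The reported EC50 was fitted from percent-inhibition dose-response curves and censored at the highest concentration. Breast cancer cell lines (20 µl suspension) were added to 384-well plates containing compound in 5 µl medium and incubated 72 h, and viability was read with 2.5 µl CellTiter-Blue over 2 h at 37 °C at 560/590 nm. Each plate was normalised to vehicle and a positive kill control and checked by Z'-factor, and rows with zero drug sensitivity score were dropped.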

MFM-223 = test system: MFM-223
Procedure, shortened: (§2)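 EC50 was fitted from dose-response curves and censored at the highest concentration tested. To build those curves, breast cancer cell lines (20 µl suspension) were seeded into 384-well plates containing compound at 5 concentrations in 10-fold steps over a compound-specific 10,000-fold range and incubated for 72 h. Readouts were CellTox Green fluorescence (485/520 nm) for cell death and then CellTiter-Glo luminescence for viability, with each plate normalised to 0.1 % DMSO and a positive kill control.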

DU-4475 = test system: DU-4475
Procedure, shortened: as §2

BT-474 = test system: BT-474
Procedure, shortened: as §2

CAL-85-1 = test system: CAL-85-1
Procedure, shortened: as §2

MDA-MB-436 = test system: MDA-MB-436
Procedure, shortened: as §2

HCC1143 = test system: HCC1143
Procedure, shortened: as §1

Row | SMILES | EC50, CellTiter-Blue viability (HCC1599) | EC50, CellTox Green (MFM-223) | EC50, CellTox Green (DU-4475) | EC50, CellTox Green (BT-474) | EC50, CellTox Green (CAL-85-1) | EC50, CellTox Green (MDA-MB-436) | EC50, CellTiter-Blue viability (HCC1143)
1 | c1ccc2c(CCNc3ccc(Nc4ccncc4)cc3)c[nH]c2c1 [Serdemetan] | 1610 nM | 7780 nM | 1810 nM |  |  |  | 
2 | CCOC(=O)CCNc1cc(N2CCc3ccccc3CC2)nc(-c2ccccn2)n1 [GSK-J4] |  | 17400 nM | 5920 nM | 2590 nM | 4080 nM | 21200 nM | 
3 | COCC[n+]1c2c(n(Cc3cnccn3)c1C)C(=O)c1ccccc1C2=O [YM155] | 12 nM | 836 nM | 418 nM | 17.9 nM | 5.8 nM | 24.2 nM | 26.2 nM
4 | O=C(/C=C/c1cccc(S(=O)(=O)Nc2ccccc2)c1)NO [Belinostat] | 348 nM | 745 nM | 519 nM | 1600 nM | 1010 nM |  | 971 nM
5 | COc1cc2c(NC3CCN(C(C)C)CC3)nc(N3CCC(F)(F)CC3)nc2cc1OCCCN1CCCC1 [UNC0642] |  |  |  | 2680 nM | 2490 nM | 20.9 nM | 
6 | Cc1[nH]c2ccccc2c1CCNCc1ccc(/C=C/C(=O)NO)cc1 [Panobinostat] | 24.1 nM | 182 nM | 20.2 nM | 27.8 nM | 33.2 nM |  | 27.4 nM
7 | COc1cc(O)c2c(c1)/C=C/C[C@H](O)[C@H](O)C(=O)/C=C\C[C@H](C)OC2=O [(5Z)-7-Oxozeaenol] |  | 277 nM | 759 nM | 4930 nM | 66.5 nM |  | 
8 | CC(C)C[C@@H](C(=O)N[C@H](C(=O)OC1CCCC1)c1ccccc1)[C@H](O)C(=O)NO [Tosedostat] |  |  |  | 1560 nM | 140 nM | 9.14 nM | 189 nM
